{"source": "patent US20050053560A1", "about": "“Use of a composition containing extracts of Vitis vinifera and lycopersicum for protecting the skin” (Pharmaton S.A, priority 2003, published 2005)", "system": "normal human skin fibroblasts of the cell line NHDF", "assay": "Fluoroscan process: antioxidant capacity of human skin fibroblasts", "type": "cell-based", "settings": "NHDF cells, reference substance at 25 μM", "text": "For the present cytotoxicity tests and the Fluoroscan process normal human skin fibroblasts of the cell line NHDF were used as the test system, depending on their availability.\nThe biologically active ingredients (standardised tomato extract, β-Carotene suspension, α-Tocopheryl acetate, standardized grape seed extract, ascorbic acid, selenium yeast) of Seresis® were first investigated in the above-mentioned amounts for possible cytotoxic effects and for their effect on the antioxidant capacity of human skin fibroblasts (NHDF). Apart from the pure mixture of active ingredients the entire contents of an active substance capsule were also used. In addition, a number of additives (oils, etc.) were also included in the test. Using two different in vitro skin models investigations were also carried out to see to what extent the protective effects of the active substances can be visualised. For this, the models were exposed to two different stressors (UV irradiation, activated immune cells)."}
{"molecule": "Cc1c(C)c2c(c(C)c1O)CC[C@@](C)(CCC[C@H](C)CCC[C@H](C)CCCC(C)C)O2", "note": "[α-Tocopherol]", "values": [{"measurement": "antioxidant potential compared with the carrier control", "value": 120, "unit": "%"}]}
